Measured values: patent US11497752B2, “Compounds and uses thereof” (Foghorn Therapeutics Inc., priority 2018, dated 2022)

What was measured:
[1] = biological target: BRM (Homo sapiens, UniProt P51531); test: ATPase catalytic activity of BRM (ADP-Glo in vitro biochemical assay)
[2] = biological target: BRG-1 (Homo sapiens, UniProt P51532); test: ATPase catalytic activity of BRG-1 (ADP-Glo in vitro biochemical assay)
BRG-1, sequence (P51532 whole entry): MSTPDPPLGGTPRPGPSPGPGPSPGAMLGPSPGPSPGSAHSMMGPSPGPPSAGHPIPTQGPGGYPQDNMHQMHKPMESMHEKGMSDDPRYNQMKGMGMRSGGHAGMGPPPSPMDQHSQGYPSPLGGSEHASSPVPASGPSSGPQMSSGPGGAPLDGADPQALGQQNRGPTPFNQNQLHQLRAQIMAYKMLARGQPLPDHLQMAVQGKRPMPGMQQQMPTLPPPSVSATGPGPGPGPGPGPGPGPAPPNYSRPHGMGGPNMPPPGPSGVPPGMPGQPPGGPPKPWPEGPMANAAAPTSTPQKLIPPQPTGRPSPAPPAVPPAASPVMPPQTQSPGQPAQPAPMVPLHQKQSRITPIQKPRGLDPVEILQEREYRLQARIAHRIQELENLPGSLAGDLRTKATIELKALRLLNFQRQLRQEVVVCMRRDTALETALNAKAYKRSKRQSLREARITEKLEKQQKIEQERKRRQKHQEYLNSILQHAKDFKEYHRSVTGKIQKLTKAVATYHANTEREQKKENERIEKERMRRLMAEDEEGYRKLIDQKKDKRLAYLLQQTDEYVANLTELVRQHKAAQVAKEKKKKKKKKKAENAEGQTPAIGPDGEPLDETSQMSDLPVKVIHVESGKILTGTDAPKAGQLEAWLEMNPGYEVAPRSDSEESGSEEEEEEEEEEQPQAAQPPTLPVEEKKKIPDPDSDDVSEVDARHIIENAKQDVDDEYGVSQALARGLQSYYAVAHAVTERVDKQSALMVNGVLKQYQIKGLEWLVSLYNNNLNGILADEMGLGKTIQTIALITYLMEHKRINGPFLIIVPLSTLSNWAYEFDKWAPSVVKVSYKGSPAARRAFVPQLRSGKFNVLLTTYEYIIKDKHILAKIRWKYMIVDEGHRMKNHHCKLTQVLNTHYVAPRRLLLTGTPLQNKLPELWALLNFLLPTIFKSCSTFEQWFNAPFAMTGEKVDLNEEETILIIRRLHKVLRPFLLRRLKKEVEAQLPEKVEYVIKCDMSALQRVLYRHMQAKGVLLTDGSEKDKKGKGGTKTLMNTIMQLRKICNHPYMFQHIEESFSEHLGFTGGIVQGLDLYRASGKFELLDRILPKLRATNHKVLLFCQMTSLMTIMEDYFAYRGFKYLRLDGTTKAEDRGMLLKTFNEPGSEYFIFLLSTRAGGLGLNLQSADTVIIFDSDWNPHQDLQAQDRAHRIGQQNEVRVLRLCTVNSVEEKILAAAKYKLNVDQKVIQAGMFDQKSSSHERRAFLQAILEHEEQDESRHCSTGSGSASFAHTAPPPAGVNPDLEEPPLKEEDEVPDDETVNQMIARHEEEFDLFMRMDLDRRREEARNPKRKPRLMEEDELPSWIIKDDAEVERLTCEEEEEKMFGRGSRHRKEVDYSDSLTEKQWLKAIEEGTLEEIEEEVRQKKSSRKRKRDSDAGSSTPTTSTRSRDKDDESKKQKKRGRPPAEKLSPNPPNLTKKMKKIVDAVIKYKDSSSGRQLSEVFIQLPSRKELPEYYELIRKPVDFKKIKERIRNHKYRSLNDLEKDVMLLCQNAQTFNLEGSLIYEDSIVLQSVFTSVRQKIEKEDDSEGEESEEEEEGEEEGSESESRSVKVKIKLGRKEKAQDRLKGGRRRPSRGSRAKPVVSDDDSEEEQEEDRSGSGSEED

BRM, sequence (P51531 whole entry): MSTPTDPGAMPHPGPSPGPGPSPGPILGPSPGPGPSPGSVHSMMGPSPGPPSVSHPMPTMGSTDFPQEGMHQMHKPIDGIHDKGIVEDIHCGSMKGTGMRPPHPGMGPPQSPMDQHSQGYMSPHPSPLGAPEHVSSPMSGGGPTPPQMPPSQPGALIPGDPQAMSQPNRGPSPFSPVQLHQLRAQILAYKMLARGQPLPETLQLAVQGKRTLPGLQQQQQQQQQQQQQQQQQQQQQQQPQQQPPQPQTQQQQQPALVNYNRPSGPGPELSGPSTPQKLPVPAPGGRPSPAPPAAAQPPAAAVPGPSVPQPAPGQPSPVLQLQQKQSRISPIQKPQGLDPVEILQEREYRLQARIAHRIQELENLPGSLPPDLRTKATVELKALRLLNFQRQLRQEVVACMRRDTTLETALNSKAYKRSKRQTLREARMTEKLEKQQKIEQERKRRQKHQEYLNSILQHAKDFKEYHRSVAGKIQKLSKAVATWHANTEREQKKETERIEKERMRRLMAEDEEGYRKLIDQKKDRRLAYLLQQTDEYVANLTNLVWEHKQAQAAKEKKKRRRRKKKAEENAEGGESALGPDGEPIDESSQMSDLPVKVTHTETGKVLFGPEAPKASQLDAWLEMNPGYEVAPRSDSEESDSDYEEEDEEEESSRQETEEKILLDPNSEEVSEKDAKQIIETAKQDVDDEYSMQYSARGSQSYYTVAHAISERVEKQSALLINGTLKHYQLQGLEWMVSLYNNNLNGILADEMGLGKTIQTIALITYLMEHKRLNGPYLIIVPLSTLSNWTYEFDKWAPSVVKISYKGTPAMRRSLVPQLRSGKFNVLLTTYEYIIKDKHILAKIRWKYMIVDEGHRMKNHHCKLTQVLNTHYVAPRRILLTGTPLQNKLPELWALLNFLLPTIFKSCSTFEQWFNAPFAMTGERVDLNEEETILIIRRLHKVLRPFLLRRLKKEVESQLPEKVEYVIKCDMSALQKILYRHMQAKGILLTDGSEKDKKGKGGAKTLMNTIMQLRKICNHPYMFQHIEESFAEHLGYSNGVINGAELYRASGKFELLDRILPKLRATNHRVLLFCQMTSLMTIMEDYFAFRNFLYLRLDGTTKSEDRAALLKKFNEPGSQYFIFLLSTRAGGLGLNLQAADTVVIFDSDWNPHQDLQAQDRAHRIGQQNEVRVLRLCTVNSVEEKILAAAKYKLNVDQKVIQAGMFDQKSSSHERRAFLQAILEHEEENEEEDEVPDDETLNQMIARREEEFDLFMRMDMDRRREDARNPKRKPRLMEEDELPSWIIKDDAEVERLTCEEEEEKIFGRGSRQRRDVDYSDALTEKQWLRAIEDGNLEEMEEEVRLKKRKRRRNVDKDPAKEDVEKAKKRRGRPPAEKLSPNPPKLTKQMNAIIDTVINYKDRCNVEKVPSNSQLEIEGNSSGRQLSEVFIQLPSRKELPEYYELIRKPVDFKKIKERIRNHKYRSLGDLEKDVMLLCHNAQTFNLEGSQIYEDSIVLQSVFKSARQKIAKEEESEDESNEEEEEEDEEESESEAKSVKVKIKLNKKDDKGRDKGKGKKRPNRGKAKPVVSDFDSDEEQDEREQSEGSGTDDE

SMILES	IC50 [1] [nM]	BRM Max % Inhibition ([1]; Table 6) [%]	IC50 [2] [nM]	BRG1 Max % Inhibition ([2]; Table 6) [%]	BRM Max % Inhibition ([1]; Table 5) [%]	BRG1 Max % Inhibition ([2]; Table 5) [%]
CC(C)S(=O)(=O)c1cccc(C(=O)NCC(=O)Nc2nc(-c3ccccc3)cs2)c1 [Compound 6, 3-(isopropylsulfonyl)-N-(2-oxo-2-((4-phenylthiazol-2-yl)amino)ethyl)benzamide]	1000 to 10000		> 10000		>90	>60
CC(=O)NC[C@H](NC(=O)c1cccc(S(=O)(=O)N(C)C)c1)C(=O)Nc1nc(-c2ccccc2)cs1 [Compound 21, (S)—N-(3-acetamido-1-oxo-1-((4-phenylthiazol-2-yl)amino)propan-2-yl)-3-(N,N-dimethylsulfamoyl)benzamide]	> 10000		> 10000		>70	>60
CN(C)C(=O)c1cccc(-c2csc(NC(=O)CNC(=O)c3cccc(S(=O)(=O)N(C)C)c3)n2)c1 [Compound 37, 3-[2-[[2-[[3-(dimethylsulfamoyl)benzoyl]amino]acetyl]amino]thiazol-4-yl]-N,N-dimethyl-benzamide]	> 10000		> 10000		>50	>30
CNS(=O)(=O)c1cccc(C(=O)NCC(=O)Nc2nc(-c3ccccc3)cs2)c1 [Compound 26, 3-(methylsulfamoyl)-N-[2-oxo-2-[(4-phenylthiazol-2-yl)amino]ethyl]benzamide]	> 10000		> 10000		>60	<30
CSCC[C@H](NC(=O)c1ccc(S(C)(=O)=O)cc1)C(=O)Nc1nc(-c2ccccc2)cs1 [Compound 86]	> 10000		> 10000		>70	>70
CC(=O)N(C)Cc1ccc(-c2cccc(-c3csc(NC(=O)CNC(=O)c4ccc(N)cc4)n3)c2)cc1 [Compound 138, 4-amino-N-(2-((4-(4′-((N-methylacetamido)methyl)-[1,1′-biphenyl]-3-yl)thiazol-2-yl)amino)-2-oxoethyl)benzamide]	100 to 1000	>90	100 to 1000	>90		
CS(=O)(=O)NCc1cccc(-c2csc(NC(=O)CNC(=O)c3cccc(S(C)(=O)=O)c3)n2)c1 [Compound 94, N-(2-((4-(3-(methylsulfonamidomethyl)phenyl)thiazol-2-yl)amino)-2-oxoethyl)-3-(methylsulfonyl)benzamide]	100 to 1000	>95	1000 to 10000	>90		
CN(C)S(=O)(=O)c1cccc(C(=O)NCC(=O)Nc2nc(-c3ccc(CN)cc3)cs2)c1 [Compound 22, N-[2-[[4-[4-(aminomethyl)phenyl]thiazol-2-yl]amino]-2-oxo-ethyl]-3-(dimethylsulfamoyl)benzamide]	> 10000		> 10000		>70	>60
CC(C)(N)c1cc(-c2cccc(-c3csc(NC(=O)CNC(=O)c4ccc(N)cc4)n3)c2)ccn1 [Compound 211, 4-amino-N-[2-[[4-[3-[2-(1-amino-1-methyl-ethyl)-4-pyridyl]phenyl]thiazol-2-yl]amino]-2-oxo-ethyl]benzamide]	100 to 1000	>95	100 to 1000	>90		
COC(=O)N1CCC[C@H](c2csc(NC(=O)CNC(=O)c3ccc(N)cc3)n2)C1 [Compound 122, (S)-methyl 3-(2-(2-(4-aminobenzamido)acetamido)thiazol-4-yl)piperidine-1-carboxylate]	100 to 1000	>95	1000 to 10000	>90		
CSCC[C@H](NC(=O)c1ccc(C(F)(F)F)cc1)C(=O)Nc1nc(-c2ccccc2)cs1 [Compound 68]	> 10000		> 10000			
CSCC[C@H](NC(=O)c1cccc(C(C)(C)C)c1)C(=O)Nc1nc(-c2ccccc2)cs1 [Compound 73, (S)-3-(tert-butyl)-N-(4-(methylthio)-1-oxo-1-((4-phenylthiazol-2-yl)amino)butan-2-yl)benzamide]	< 1000		1000 to 10000		>50	>30
CSCC[C@H](NC(=O)c1ccc(CN)cc1)C(=O)Nc1nc(-c2ccccc2)cs1 [Compound 57, 4-(aminomethyl)-N-[3-methylsulfanyl-1-[(4-phenylthiazol-2-yl)carbamoyl]propyl]benzamide]	> 10000		> 10000		>90	>90
CSCC[C@H](NC(=O)c1ccc2[nH]ccc2c1)C(=O)Nc1nc(-c2ccccc2)cs1 [Compound 83, (S)—N-(4-(methylthio)-1-oxo-1-((4-phenylthiazol-2-yl)amino)butan-2-yl)-1H-indole-5-carboxamide]	1000 to 10000				>90	
Cc1nnc(-c2cccc(-c3csc(NC(=O)CNC(=O)c4ccc(N)cc4)n3)c2)o1 [Compound 113, 4-amino-N-(2-((4-(3-(5-methyl-1,3,4-oxadiazol-2-yl)phenyl)thiazol-2-yl)amino)-2-oxoethyl)benzamide]	100 to 1000					
CSCC[C@@H](NC(=O)c1ccc(N)cc1)C(=O)Nc1nc(-c2cccc(-c3ccncc3)c2)cs1 [Compound 155, (R)-4-amino-N-(4-(methylthio)-1-oxo-1-((4-(3-(pyridin-4-yl)phenyl)thiazol-2-yl)amino)butan-2-yl)benzamide]		>80				
Cc1cc(-c2cccc(-c3csc(NC(=O)CNC(=O)c4ccc(N)cc4)n3)c2)on1 [Compound 231, 4-amino-N-[2-[[4-[3-(3-methylisoxazol-5-yl)phenyl]thiazol-2-yl]amino]-2-oxo-ethyl]benzamide]	100 to 1000					

Now from value to molecule:

IC50 [1] [nM]	BRM Max % Inhibition ([1]; Table 6) [%]	IC50 [2] [nM]	BRG1 Max % Inhibition ([2]; Table 6) [%]	BRM Max % Inhibition ([1]; Table 5) [%]	BRG1 Max % Inhibition ([2]; Table 5) [%]	SMILES
< 100	>95	< 100	>95			NCc1cc(-c2cccc(-c3csc(NC(=O)CNC(=O)c4ccc(N)cc4)n3)c2)ccn1 [Compound 164, 4-amino-N-(2-((4-(3-(2-(aminomethyl)pyridin-4-yl)phenyl)thiazol-2-yl)amino)-2-oxoethyl)benzamide]
100 to 1000	>80	100 to 1000	>70			Nc1ccc(C(=O)NCC(=O)Nc2nc(-c3cccc(N4CCS(=O)(=O)CC4)c3)cs2)cc1 [Compound 185, 4-amino-N-(2-((4-(3-(1,1-dioxidothiomorpholino)phenyl)thiazol-2-yl)amino)-2-oxoethyl)benzamide]
100 to 1000	>80	100 to 1000	>60			CC(C)(O)c1cccc(-c2csc(NC(=O)CNC(=O)c3ccc(N)cc3)n2)c1 [Compound 198, 4-amino-N-[2-[[4-[3-(1-hydroxy-1-methyl-ethyl)phenyl]thiazol-2-yl]amino]-2-oxo-ethyl]benzamide]
100 to 1000	>90	100 to 1000	>80			Nc1ccc(C(=O)NCC(=O)Nc2nc(-c3cncc(-c4ccncc4)c3)cs2)cc1 [Compound 208, 4-amino-N-[2-oxo-2-[[4-[5-(4-pyridyl)-3-pyridyl]thiazol-2-yl]amino]ethyl]benzamide]
< 100	>95	< 100	>95			Nc1ccc(C(=O)NCC(=O)Nc2nc(-c3cccc(-c4ccc(O)cc4)c3)cs2)cc1 [Compound 139, 4-amino-N-(2-((4-(4′-hydroxy-[1,1′-biphenyl]-3-yl)thiazol-2-yl)amino)-2-oxoethyl)benzamide]
100 to 1000	>95	100 to 1000	>90			Nc1ccc(C(=O)NCC(=O)Nc2nc(-c3cccc(-c4cc[n+]([O-])cc4)c3)cs2)cc1 [Compound 156, 4-(3-(2-(2-(4-aminobenzamido)acetamido)thiazol-4-yl)phenyl)pyridine 1-oxide]
100 to 1000	>90	100 to 1000	>90			Nc1ccc(C(=O)NCC(=O)Nc2nc(-c3cccc(N4CCC[C@H](O)C4)c3)cs2)cc1 [Compound 236, 4-amino-N-[2-[[4-[3-[(3S)-3-hydroxy-1-piperidyl]phenyl]thiazol-2-yl]amino]-2-oxo-ethyl]benzamide]
< 100	>80	< 100	>80			CNc1ccc(C(=O)NCC(=O)Nc2nc(-c3cccc(-c4ccncc4)c3)cs2)cc1 [Compound 126, 4-(methylamino)-N-(2-oxo-2-((4-(3-(pyridin-4-yl)phenyl)thiazol-2-yl)amino)ethyl)benzamide]
< 100	>95	< 100	>95			COCC[C@H](NC(=O)c1ccc(N)cc1)C(=O)Nc1nc(-c2cccc(-c3ccncc3)c2)cs1 [Compound 178, (S)-4-amino-N-(4-methoxy-1-oxo-1-((4-(3-(pyridin-4-yl)phenyl)thiazol-2-yl)amino)butan-2-yl)benzamide]
< 100	>95	< 100	>95			CC(=O)N(C)c1cc(-c2cccc(-c3csc(NC(=O)CNC(=O)c4ccc(N)cc4)n3)c2)ccn1 [Compound 183, 4-amino-N-(2-((4-(3-(2-(N-methylacetamido)pyridin-4-yl)phenyl)thiazol-2-yl)amino)-2-oxoethyl)benzamide]
< 100						Nc1ccc(C(=O)NCC(=O)Nc2nc(-c3cccc(-c4ccncc4)c3)cs2)cc1 [Compound 117, 4-amino-N-(2-oxo-2-((4-(3-(pyridin-4-yl)phenyl)thiazol-2-yl)amino)ethyl)benzamide]
< 100	>95	< 100	>95			CC(C)c1cc(-c2cccc(-c3csc(NC(=O)CNC(=O)c4ccc(N)cc4)n3)c2)ccn1 [Compound 207, 4-amino-N-[2-[[4-[3-(2-isopropyl-4-pyridyl)phenyl]thiazol-2-yl]amino]-2-oxo-ethyl]benzamide]
